Laboratory results: patent US7517998B2, “Non nucleoside reverse transcriptase inhibitors” (priority 2004, dated 2009)

Molecular target: T1, K103NNY181C mutant reverse transcriptase (Human immunodeficiency virus type 1 group M subtype B, UniProt P04585, K690N/Y768C)
T1 construct: mutations that occur in the reverse transcriptase segment of the pol gene
Assay: Reverse transcriptase enzymatic assay (PicoGreen), K103N/Y181C mutant RT
Format: biochemical, HIV-1
Details: IC50 mut (nM), mutant (K103N/Y181C) reverse transcriptase, enzymatic assay of Example 24
How it was run: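 PicoGreen fluorescence (ex 485, em 520 nm) quantified product after EDTA stop. Reaction ran 50 min at 37 °C in pH 7.8 Tris/HCl buffer, 1% DMSO, with poly rC/dG15 template-primer (45/4.5 nM), 3.6 μM dGTP, 2.5 nM enzyme; inhibitor 10 μM–0.508 nM final after 15 min room-temperature pre-incubation.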

Question: Which IC50 does the source give for `CC(C)(C)c1ccc(-n2nnnc2SCC(=O)Nc2ccc(NC(=O)C3CCCC3)cc2Cl)c(Cl)c1` [Compound 7021] here?
Answer: 262 nM

Question: With `COc1ccccc1CC(=O)Nc1ccc(NC(=O)CSc2nnnn2-c2ccc(C(C)(C)C)cc2Cl)c(Cl)c1` [Compound 7018] as the molecule, how does the IC50 read?
Answer: 100 nM

Question: For `CC(C)(C)c1ccc(-n2nnnc2SCC(=O)Nc2ccc(NC(=O)CCC(=O)O)cc2Cl)c(Cl)c1` [Compound 7028], which IC50 is on record?
Answer: 123 nM

Question: With `CC(C)C(=O)Nc1ccc(NC(=O)CSc2nnnn2-c2ccc(C(C)(C)C)cc2Cl)c(Cl)c1` [Compound 7010] as the molecule, how does the IC50 read?
Answer: 83 nM

Question: How did the IC50 turn out when `CC(C)(C)c1ccc(-n2nnnc2SCC(=O)Nc2ccc(NC(=O)Cc3cccnc3)cc2Cl)c(Cl)c1` [Compound 7031] was run?
Answer: 43 nM

Question: Which IC50 does the source give for `C#CCCC(=O)Nc1ccc(NC(=O)CSc2nnnn2-c2ccc(C(C)(C)C)cc2Cl)c(Cl)c1` [Compound 7020] here?
Answer: 69 nM

Question: For `CC(C)(C)c1ccc(-n2nnnc2SCC(=O)Nc2ccc(NC(=O)c3cccc(C(=O)O)c3)cc2Cl)c(Cl)c1` [Compound 7027], which IC50 is on record?
Answer: 134 nM

Question: Which IC50 does the source give for `CC(C)(C)c1ccc(-n2nnnc2SCC(=O)Nc2ccc(NC(=O)C3CCCCC3)cc2Cl)c(Cl)c1` [Compound 7022] here?
Answer: 629 nM

Question: How did the IC50 turn out when `CC(C)(C)c1ccc(-n2nnnc2SCC(=O)Nc2ccc(NS(=O)(=O)c3cccs3)cc2Cl)c(Cl)c1` [Compound 7007] was run?
Answer: 331 nM

Same assay, conditions: IC50 mut, K103N/Y181C mutant reverse transcriptase, enzymatic assay of Example 24

Question: Which IC50 does the source give for `CC(C)(C#Cc1ccc(NC(=O)CSc2nnnn2-c2ccc(CC3CC3)cc2Cl)c(Cl)c1)C(=O)O` [Compound 4240] here?
Answer: 175 nM

Question: `CC(C)(C#Cc1ccc(NC(=O)CSc2nnnn2-c2cc(C(F)(F)F)ccc2Cl)c(Cl)c1)OCCN1CCCC1` [Compound 4142] was tested. Which IC50 did it give?
Answer: 50.5 nM

Question: `CN1CCN(C(=O)NC(C)(C)C#Cc2ccc(NC(=O)CSc3nnnn3-c3ccc(C4CC4)cc3Cl)c(Cl)c2)CC1` [Compound 4229] was tested. Which IC50 did it give?
Answer: 15 nM

Question: How did the IC50 turn out when `CC(C)(C#Cc1ccc(NC(=O)CSc2nnnn2-c2ccc(C3CC3)cc2Cl)c(Cl)c1)OCCN1CCCCC1` [Compound 4103] was run?
Answer: 218 nM

Question: With `Cc1cc(C(F)(F)F)cc(-n2nnnc2SCC(=O)Nc2ccc(C#CC(C)(C)C(=O)O)cc2Cl)c1Cl` [Compound 4058] as the molecule, how does the IC50 read?
Answer: 63 nM

Question: For `CC(C)(C#Cc1ccc(NC(=O)CSc2nnnn2-c2cc(Cl)ccc2Cl)c(Cl)c1)C(=O)O` [Compound 4162], which IC50 is on record?
Answer: 99 nM

Question: With `CC(C)(C#Cc1ccc(NC(=O)CSc2nnnn2-c2cc(C(F)(F)F)cc(C3CC3)c2Cl)c(Cl)c1)OCCN1CCNCC1` [Compound 4235] as the molecule, how does the IC50 read?
Answer: 718 nM

Question: With `CC(C)(O)C#Cc1ccc(NC(=O)CSc2nnnn2-c2cc(C#N)ccc2Cl)c(Cl)c1` [Compound 4021] as the molecule, how does the IC50 read?
Answer: 361 nM

Question: `CC(C)(C#Cc1ccc(NC(=O)CSc2nnnn2-c2ccc(C3CC3)cc2Cl)c(Cl)c1)C(=O)NS(=O)(=O)C1CC1` [Compound 4184] was tested. Which IC50 did it give?
Answer: 30.5 nM

Question: For `CC(C)(C#Cc1ccc(NC(=O)CSc2nnnn2-c2cc(C3CC3)cc(C(F)(F)F)c2Cl)c(Cl)c1)C(=O)O` [Compound 4159], which IC50 is on record?
Answer: 136 nM

Question: Which IC50 does the source give for `CC(C)(C#Cc1ccc(NC(=O)CSc2nnnn2-c2cc(C(F)(F)F)cc(Cl)c2Cl)c(Cl)c1)NC(=O)c1cc[n+]([O-])cc1` [Compound 4210] here?
Answer: 15.5 nM

Question: Which IC50 does the source give for `O=C(CSc1nnnn1-c1ccc(C2CC2)cc1Cl)Nc1ccc(C#CC2(CO)CC2)cc1Cl` [Compound 4083] here?
Answer: 29 nM

Question: With `Cc1cc(Cl)c(-n2nnnc2SCC(=O)Nc2ccc(C#CC(C)(C)O)cc2Cl)cc1C(F)(F)F` [Compound 4060] as the molecule, how does the IC50 read?
Answer: 42 nM

Question: With `CC(C)(C#Cc1ccc(NC(=O)CSc2nnnn2-c2cc(C(F)(F)F)ccc2Cl)c(Cl)c1F)C(=O)O` [Compound 4101] as the molecule, how does the IC50 read?
Answer: 57 nM

Question: Which IC50 does the source give for `CN(C)CC(=O)NC(C)(C)C#Cc1ccc(NC(=O)CSc2nnnn2-c2ccc(C3CC3)cc2Cl)c(Cl)c1` [Compound 4087] here?
Answer: 21.5 nM

Question: Which IC50 does the source give for `CC(C)(C#Cc1ccc(NC(=O)CSc2nnnn2-c2cc(C(F)(F)F)ccc2Cl)c(Cl)c1)C(=O)O` [Compound 4196] here?
Answer: 198 nM

Question: How did the IC50 turn out when `CC(C)(C#Cc1ccc(NC(=O)CSc2nnnn2-c2ccc(C3CC3)cc2Cl)c(Cl)c1)NC(=O)CCC(=O)O` [Compound 4238] was run?
Answer: 7.8 nM

Question: For `CN(O)C(=O)COC(C)(C)C#Cc1ccc(NC(=O)CSc2nnnn2-c2ccc(C(C)(C)C)cc2Cl)c(Cl)c1` [Compound 4050], which IC50 is on record?
Answer: 66 nM

Question: For `CC(C)(C#Cc1ccc(NC(=O)CSc2nnnn2-c2ccc(C3CC3)cc2Cl)c(Cl)c1)NC(=O)CNc1cc[n+]([O-])cc1` [Compound 4193], which IC50 is on record?
Answer: 29 nM

Question: Which IC50 does the source give for `CC(C)(O)C#Cc1ccc(NC(=O)CSc2nnnn2-c2cc(F)cc(C(F)(F)F)c2Cl)c(Cl)c1` [Compound 4029] here?
Answer: 212 nM

Question: With `CC(C)(C#Cc1ccc(NC(=O)CSc2nnnn2-c2ccc(C3CC3)cc2Cl)c(Cl)c1F)OCCN1CCNCC1` [Compound 4176] as the molecule, how does the IC50 read?
Answer: 108 nM

Question: For `CC(C)(C#Cc1ccc(NC(=O)CSc2nnnn2-c2cc(C(C)(C)C)ccc2Cl)c(Cl)c1)NC(=O)CNc1cc[n+]([O-])cc1` [Compound 4203], which IC50 is on record?
Answer: 164 nM

Question: With `CC(C)(C#Cc1ccc(NC(=O)CSc2nnnn2-c2ccc(C3CC3)cc2Cl)c(Cl)c1)C(=O)NS(=O)(=O)c1ccccc1` [Compound 4183] as the molecule, how does the IC50 read?
Answer: 61 nM

Question: For `CC(C)(C#Cc1ccc(NC(=O)CSc2nnnn2-c2cccc(Cl)c2Cl)c(Cl)c1)C(=O)O` [Compound 4161], which IC50 is on record?
Answer: 224 nM

Question: How did the IC50 turn out when `CC(C)(C#Cc1ccc(NC(=O)CSc2nnnn2-c2ccc(C(C)(C)C)cc2Cl)c(Cl)c1)OCC(=O)N1CCCC1` [Compound 4038] was run?
Answer: 75 nM

Question: For `CCN(CC)CC#Cc1ccc(NC(=O)CSc2nnnn2-c2ccc(C(C)(C)C)cc2Cl)c(Cl)c1` [Compound 4008], which IC50 is on record?
Answer: 94 nM

Same assay, conditions: IC50 mut, mutant reverse transcriptase, enzymatic assay of Example 24

Question: `CS(=O)(=O)NC(=O)c1ccc(NC(=O)CSc2nnnn2-c2ccc(C3CC3)cc2Cl)c(Cl)c1` [Compound 6036] was tested. Which IC50 did it give?
Answer: 146 nM

Question: How did the IC50 turn out when `CNC(=O)c1ccc(NC(=O)CSc2nnnn2-c2ccc(C)cc2Cl)c(Cl)c1` [Compound 3007] was run?
Answer: 290 nM

Question: For `CC(C)(C)c1ccc(-n2nnnc2SCC(=O)Nc2ccc(S(=O)(=O)NCc3ccccc3)cc2Cl)c(Cl)c1` [Compound 3028], which IC50 is on record?
Answer: 440 nM

Question: How did the IC50 turn out when `Cc1ccc(-n2nnnc2SCC(=O)Nc2ccc(-c3coc(C)n3)cc2Cl)c(Cl)c1` [Compound 3017] was run?
Answer: 308 nM

Question: Which IC50 does the source give for `Cn1cc(NC(=O)COc2ccc(NC(=O)CSc3nnnn3-c3ccc(C(C)(C)C)cc3Cl)c(Cl)c2)cc1C(=O)O` [Compound 5029] here?
Answer: 34 nM

Question: Which IC50 does the source give for `Cc1ccc(-n2nnnc2SCC(=O)Nc2ccc(-c3ccc(OCC(=O)O)cc3)cc2Cl)c(Cl)c1` [Compound 2007] here?
Answer: 22 nM

Question: Which IC50 does the source give for `CC(C)(C)c1ccc(-n2nnnc2SCC(=O)Nc2ccc(OCC(=O)NCc3ccc(O)c(O)c3)cc2Cl)c(Cl)c1` [Compound 5019] here?
Answer: 78 nM

Question: For `CC(C)(C)c1ccc(-n2nnnc2SCC(=O)Nc2ccc(C(=O)Nc3ccc(CC(=O)O)cc3)cc2Cl)c(Cl)c1` [Compound 6001], which IC50 is on record?
Answer: 69 nM

Question: How did the IC50 turn out when `Cc1ccc(-n2nnnc2SCC(=O)Nc2ccc(-c3ccc(CCO)cc3)cc2Cl)c(Cl)c1` [Compound 2009] was run?
Answer: 28 nM

Question: How did the IC50 turn out when `O=C(CSc1nnnn1-c1ccc(C2CC2)cc1Cl)Nc1ccc(-c2ccc(OCCN3CCCCC3)cc2)c(F)c1Cl` [Compound 2051] was run?
Answer: 30.5 nM

Question: `CC(C)(C)c1ccc(-n2nnnc2SCC(=O)Nc2ccc(C(=O)Nc3ccccc3O)cc2Cl)c(Cl)c1` [Compound 6011] was tested. Which IC50 did it give?
Answer: 26 nM

Question: For `CC(C)c1ccc(-n2nnnc2SCC(=O)Nc2ccc(-c3ccc(C(C)(C)C(=O)O)cc3)cc2Cl)c(Cl)c1` [Compound 2055], which IC50 is on record?
Answer: 56 nM

Question: For `O=C(O)Cc1ccc(-c2ccc(NC(=O)CSc3nnnn3-c3ccc(C4CC4)cc3Cl)c(Cl)c2)cc1` [Compound 2033], which IC50 is on record?
Answer: 15 nM

Question: With `Cc1cc(-c2ccc(NC(=O)CSc3nnnn3-c3ccc(C(C)(C)C)cc3Cl)c(Cl)c2)ccc1OCC(=O)O` [Compound 3010] as the molecule, how does the IC50 read?
Answer: 33 nM
